Measurements published in PubChem BioAssay (NCI).
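Following 48 hours of exposure in 96-well plates, responses at five concentrations were used to interpolate endpoints linearly. GI50 = concentration required for 50% inhibition of growth. TGI: concentration producing complete growth inhibition.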

Key:
Assay in all cases: NCI-60 cell line screen, 48 h
SF-295 CNS = system: SF-295 CNS
IGROV1 ovarian = system: IGROV1 ovarian
RPMI-8226 leukemia = system: RPMI-8226 leukemia
OVCAR-5 ovarian = system: OVCAR-5 ovarian
SF-268 CNS = system: SF-268 CNS
SF-539 CNS = system: SF-539 CNS
UO-31 renal = system: UO-31 renal
HCT-15 colon = system: HCT-15 colon
MOLT-4 leukemia = system: MOLT-4 leukemia
HOP-92 NSCLC = system: HOP-92 NSCLC
SNB-75 CNS = system: SNB-75 CNS
OVCAR-3 ovarian = system: OVCAR-3 ovarian
BT-549 breast = system: BT-549 breast
HOP-62 NSCLC = system: HOP-62 NSCLC
HL-60(TB) leukemia = system: HL-60(TB) leukemia
NCI-H460 lung = system: NCI-H460 lung
COLO 205 colon = system: COLO 205 colon
PC-3 prostate = system: PC-3 prostate
SNB-19 CNS = system: SNB-19 CNS
A549 NSCLC = system: A549 NSCLC
NCI/ADR-RES ovarian = system: NCI/ADR-RES ovarian
A498 renal = system: A498 renal
U251 CNS = system: U251 CNS
UACC-257 melanoma = system: UACC-257 melanoma
SN12C renal = system: SN12C renal
SK-MEL-5 melanoma = system: SK-MEL-5 melanoma
OVCAR-4 ovarian = system: OVCAR-4 ovarian
NCI-H23 lung = system: NCI-H23 lung
DU-145 prostate = system: DU-145 prostate
SR leukemia = system: SR leukemia
TK-10 renal = system: TK-10 renal
MALME-3M melanoma = system: MALME-3M melanoma
NCI-H226 lung = system: NCI-H226 lung
K-562 leukemia = system: K-562 leukemia
CCRF-CEM leukemia = system: CCRF-CEM leukemia
M14 melanoma = system: M14 melanoma
HCC-2998 colon = system: HCC-2998 colon
MDA-MB-435 = system: MDA-MB-435
HS 578T breast = system: HS 578T breast
HCT-116 colon = system: HCT-116 colon
KM12 colon = system: KM12 colon
LOX IMVI melanoma = system: LOX IMVI melanoma
MDA-MB-231 breast = system: MDA-MB-231 breast
HT29 colon = system: HT29 colon
EKVX NSCLC = system: EKVX NSCLC
OVCAR-8 ovarian = system: OVCAR-8 ovarian
NCI-H522 lung = system: NCI-H522 lung
786-0 renal = system: 786-0 renal
SK-MEL-2 melanoma = system: SK-MEL-2 melanoma
SK-OV-3 ovarian = system: SK-OV-3 ovarian
MCF7 breast = system: MCF7 breast
UACC-62 melanoma = system: UACC-62 melanoma
SW-620 colon = system: SW-620 colon

CCCC[C@H](NC(=O)[C@H]1CCCCN1C)C(=O)N(C)[C@H](C[C@@H](OC(C)=O)c1nc(C(=O)N[C@@H](Cc2ccccc2)C[C@H](C)C(=O)OCC)cs1)C(C)C
GI50 (SF-295 CNS): < 3.33 nM | TGI (SF-295 CNS): 4340 nM | GI50 (IGROV1 ovarian): 3.43 nM | TGI (IGROV1 ovarian): > 33300 nM | GI50 (RPMI-8226 leukemia): < 3.33 nM | TGI (RPMI-8226 leukemia): 4850 nM | GI50 (OVCAR-5 ovarian): 8.33 nM | TGI (OVCAR-5 ovarian): 21600 nM | GI50 (SF-268 CNS): < 3.33 nM | TGI (SF-268 CNS): 12100 nM | GI50 (SF-539 CNS): 3.46 nM | TGI (SF-539 CNS): 24 nM | GI50 (UO-31 renal): 18.8 nM | TGI (UO-31 renal): 11900 nM | GI50 (HCT-15 colon): 5.21 nM | TGI (HCT-15 colon): 5730 nM | GI50 (MOLT-4 leukemia): 3.82 nM | TGI (MOLT-4 leukemia): 20500 nM | GI50 (HOP-92 NSCLC): 1230 nM | TGI (HOP-92 NSCLC): 27300 nM | GI50 (SNB-75 CNS): < 3.33 nM | TGI (SNB-75 CNS): 10800 nM | GI50 (OVCAR-3 ovarian): < 3.33 nM | TGI (OVCAR-3 ovarian): 12200 nM | GI50 (BT-549 breast): < 3.33 nM | TGI (BT-549 breast): 133 nM | GI50 (HOP-62 NSCLC): < 3.33 nM | TGI (HOP-62 NSCLC): 8610 nM | GI50 (HL-60(TB) leukemia): < 3.33 nM | TGI (HL-60(TB) leukemia): 3.41 nM | GI50 (NCI-H460 lung): < 3.33 nM | TGI (NCI-H460 lung): 5650 nM | GI50 (COLO 205 colon): < 3.33 nM | TGI (COLO 205 colon): 7.12 nM | GI50 (PC-3 prostate): < 3.33 nM | TGI (PC-3 prostate): > 33300 nM | GI50 (SNB-19 CNS): < 3.33 nM | TGI (SNB-19 CNS): > 33300 nM | GI50 (A549 NSCLC): 4.44 nM | TGI (A549 NSCLC): > 33300 nM | GI50 (NCI/ADR-RES ovarian): 82.8 nM | TGI (NCI/ADR-RES ovarian): > 33300 nM | GI50 (A498 renal): < 3.33 nM | TGI (A498 renal): 8.69 nM | GI50 (U251 CNS): < 3.33 nM | TGI (U251 CNS): 8580 nM | GI50 (UACC-257 melanoma): 3560 nM | TGI (UACC-257 melanoma): 10600 nM | GI50 (SN12C renal): 5.83 nM | TGI (SN12C renal): 6550 nM | GI50 (SK-MEL-5 melanoma): < 3.33 nM | TGI (SK-MEL-5 melanoma): 47.3 nM | GI50 (OVCAR-4 ovarian): 476 nM | TGI (OVCAR-4 ovarian): > 33300 nM | GI50 (NCI-H23 lung): 6.41 nM | TGI (NCI-H23 lung): > 33300 nM | GI50 (DU-145 prostate): < 3.33 nM | TGI (DU-145 prostate): > 33300 nM | GI50 (SR leukemia): < 3.33 nM | TGI (SR leukemia): 6790 nM | GI50 (TK-10 renal): 7860 nM | TGI (TK-10 renal): > 33300 nM | GI50 (MALME-3M melanoma): 1080 nM | TGI (MALME-3M melanoma): 7100 nM | GI50 (NCI-H226 lung): 85.7 nM | TGI (NCI-H226 lung): 19100 nM | GI50 (K-562 leukemia): < 3.33 nM | TGI (K-562 leukemia): 11100 nM | GI50 (CCRF-CEM leukemia): < 3.33 nM | TGI (CCRF-CEM leukemia): 6210 nM | GI50 (M14 melanoma): < 3.33 nM | TGI (M14 melanoma): 3620 nM | GI50 (HCC-2998 colon): < 3.33 nM | TGI (HCC-2998 colon): 8390 nM | GI50 (MDA-MB-435): < 3.33 nM | TGI (MDA-MB-435): < 3.33 nM | GI50 (HS 578T breast): < 3.33 nM | TGI (HS 578T breast): 8490 nM | GI50 (HCT-116 colon): < 3.33 nM | TGI (HCT-116 colon): > 33300 nM | GI50 (KM12 colon): < 3.33 nM | TGI (KM12 colon): > 33300 nM | GI50 (LOX IMVI melanoma): < 3.33 nM | TGI (LOX IMVI melanoma): 5640 nM | GI50 (MDA-MB-231 breast): < 3.33 nM | TGI (MDA-MB-231 breast): 341 nM | GI50 (HT29 colon): < 3.33 nM | TGI (HT29 colon): 3600 nM | GI50 (EKVX NSCLC): 7.39 nM | TGI (EKVX NSCLC): > 33300 nM | GI50 (OVCAR-8 ovarian): 5.28 nM | TGI (OVCAR-8 ovarian): > 33300 nM | GI50 (NCI-H522 lung): < 3.33 nM | TGI (NCI-H522 lung): 775 nM | GI50 (786-0 renal): < 3.33 nM | TGI (786-0 renal): 6270 nM | GI50 (SK-MEL-2 melanoma): < 3.33 nM | TGI (SK-MEL-2 melanoma): 13700 nM | GI50 (SK-OV-3 ovarian): < 3.33 nM | TGI (SK-OV-3 ovarian): 13000 nM | GI50 (MCF7 breast): < 3.33 nM | TGI (MCF7 breast): > 33300 nM | GI50 (UACC-62 melanoma): < 3.33 nM | TGI (UACC-62 melanoma): 24100 nM | GI50 (SW-620 colon): < 3.33 nM | TGI (SW-620 colon): > 33300 nM
